Assay results from BindingDB's records for doi:10.1016/0960-894X(95)00325-N (1995).
pKi: −log10 of the molar value.

Experiment: Binding affinity by its ability to displace [3H]DPDPE from delta receptor in homogenates of guinea pig brain

Structure (SMILES) | pKi
COc1cccc2c1[C@]13CCN(CC4CC4)[C@H](C2)[C@]1(OC)CCC(=O)C3 [Naltrindole analogue] | 6.98
COc1cccc2c1[C@]13CCN(CCc4ccccc4)C(C2)[C@]1(OC)CCC(=O)C3 [3,10-dimethoxy-17-phenethyl-17-azatetracyclo[7.5.3.01,10.02,7]heptadeca-2(7),3,5-trien-13-one; with HBr] | 7.31
COc1cccc2c1[C@]13CCN(C)[C@H](C2)[C@]1(OC)CCC(=O)C3 [3,10-dimethoxy-17-methyl-(10S)-17-azatetracyclo[7.5.3.01,10.02,7]heptadeca-2(7),3,5-trien-13-one] | 7.34
